PubChem BioAssay (NCI)
Several values for one entry are separate records, joined by “and”; a condition that tells them apart may be missing. Equal entries are not always repeated.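 Five compound concentrations were applied to cells in 96-well plates for 48 hours; endpoints were derived by simple linear interpolation of the resulting dose-response curve. Abbreviation: GI50, concentration required for 50% inhibition of growth. TGI marks complete inhibition of growth.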

What was measured:
Assay in all cases: inhibition of tumour cell growth, NCI panel, 48 h
DU-145 prostate = test system: DU-145 prostate
MALME-3M melanoma = test system: MALME-3M melanoma
U251 CNS = test system: U251 CNS
NCI-H23 lung = test system: NCI-H23 lung
OVCAR-8 ovarian = test system: OVCAR-8 ovarian
K-562 leukemia = test system: K-562 leukemia
COLO 205 colon = test system: COLO 205 colon
MOLT-4 leukemia = test system: MOLT-4 leukemia
HCT-116 colon = test system: HCT-116 colon
UACC-62 melanoma = test system: UACC-62 melanoma

Structure (SMILES)	GI50 (DU-145 prostate) [µM]	TGI (DU-145 prostate)	TGI (MALME-3M melanoma)	GI50 (U251 CNS) [µM]	TGI (U251 CNS)	GI50 (NCI-H23 lung) [µM]	TGI (NCI-H23 lung)	GI50 (OVCAR-8 ovarian) [µM]	TGI (OVCAR-8 ovarian) [µM]	GI50 (K-562 leukemia) [µM]	TGI (K-562 leukemia) [µM]	GI50 (COLO 205 colon) [µM]	TGI (COLO 205 colon) [µM]	GI50 (MOLT-4 leukemia) [µM]	TGI (MOLT-4 leukemia) [µM]	GI50 (HCT-116 colon) [µM]	TGI (HCT-116 colon) [µM]	GI50 (UACC-62 melanoma) [µM]	TGI (UACC-62 melanoma)	GI50 (MALME-3M melanoma) [µM]
FC(F)(F)c1cc(NC(=S)N2c3ccccc3-n3cccc3C2c2cccnc2)cc(C(F)(F)F)c1 (stereo unspecified)	10.6	24.3 µM	26.9 µM	4.2	14.8 µM	7.01	20.6 µM	4.65	15.3	3.58	19.3	9.07	21.6	3.96	20.2	12.4	40.3	11.7	24.4 µM	–
CCCCc1n(Cc2ccc3ccccc3n2)cc[n+]1Cc1ccc2ccccc2n1	3.27	16.2 µM	7.03 µM	0.925	12.4 µM	0.499	8.54 µM	2.73	12	0.621	12.3	0.535	2.28	1.81	11	2.1	11	0.749	3.56 µM	0.946
Cc1ccc2[nH]c(C(=O)NN3C(=O)C(C)SC34CCC(C)CC4)c(-c3ccccc3)c2c1 (stereo unspecified)	21.8	54.3 µM	33.4 µM	15.7	34.1 µM	15.2	32 µM	21.2	53.2	16.2	61.9	17.8	41.1	7.86	32.2	15.2	34.5	11.8	25.6 µM	17
COc1ccc(C2CC(c3ccc(OC)cc3O)=NN2c2ccc(S(N)(=O)=O)cc2)cc1 (stereo unspecified)	44.5	> 100 µM	> 100 µM	6.42	> 100 µM	20.5	> 100 µM	24.1	> 100	5.71	> 100	5.98	20.1	2.88	36.6	4.47	69.3	8.76	> 100 µM	20.2
CC(=O)Nc1ccc(OC(C)=O)cc1	< 0.0105	0.0172 µM	24.5 µM	< 0.01	> 37.7 µM	< 0.01	60.3 µM	< 0.01	> 49.1	< 0.01	> 57.2	< 0.01	0.01	< 0.01	3.79	< 0.01	0.204	< 0.01	12.7 µM	0.668
CN[C@@H](Cc1cccc2ccccc12)C(=O)N[C@@H](CC(C)C)B(O)O	0.0515	0.219 µM and 0.315 µM	0.0336 µM and 0.0214 µM	0.0303	0.119 µM and 0.0438 µM	0.016	0.0387 µM and < 0.0114 µM	0.0259	0.0844	0.0228	0.0952	0.0427	0.17	–	0.0466	0.0118	0.0285	0.017	0.0344 µM and < 0.0154 µM	0.0121
CCc1cccc(NC(=O)Nc2ccc(Oc3ccc4nc(NC(=O)OC)[nH]c4c3)cc2)c1	4.94	> 15.4 µM	11.1 µM	4.85	> 15.4 µM	5.59	> 20.8 µM	5.79	> 18.8	0.153	> 25	6.8	> 17.9	10.4	> 25	3.39	> 14.9	1.93	10.1 µM	2.14
CC1(C)CCc2c(c(N=Nc3ccccc3F)c3ccccc3c2O)O1	87.5	> 100 µM	> 100 µM	19.4	37 µM	16.8	58.6 µM	23.3	51.4	> 100	> 100	> 100	> 100	> 100	> 100	27.7	> 100	> 100	> 100 µM	34.5
O=C1c2ccccc2C(=O)c2c1oc1c2c(=O)[nH]c2ccc(Cl)cc21	0.279	0.781 µM	0.441 µM	0.268	0.767 µM	0.355	1.83 µM	0.389	2.29	0.375	2.01	10.5	27.6	0.435	3.14	0.307	1.09	0.285	1.15 µM	0.226
Cc1c[nH]c(=O)n(Cc2nnc(CCC(=O)c3nc4ccccc4[nH]3)o2)c1=O	0.337	1.21 µM	> 100 µM	0.372	> 42.5 µM	0.432	–	0.661	> 100	1.03	> 100	0.299	1.04	1.69	> 100	0.251	> 89.8	0.721	> 88.1 µM	1.14
CCn1c(SCC(=O)Nc2cc(C(F)(F)F)ccc2Cl)nc2ccccc2c1=O	32.3	> 100 µM	> 100 µM	30.3	> 100 µM	46.9	> 100 µM	32.2	> 100	> 100	> 100	> 100	> 100	> 100	> 100	17.4	> 100	38.4	> 100 µM	34.3
Cc1ccc(-c2nc(/C=N/Nc3cc(C)nc4ccc(Br)cc34)c(C)o2)cc1	1.8	3.36 µM	3.62 µM	1.84	3.45 µM	2.09	4.75 µM	2.08	4.4	1.93	4.58	2.03	3.97	2.32	5.13	1.85	3.46	1.73	3.36 µM	2.05
O=C(c1ccc2ccccc2c1)c1c(C(F)(F)F)n([O-])c2cc(C(F)(F)F)ccc2[n+]1=O	1.67	3.12 µM	3.36 µM	1.75	3.29 µM	2.41	5.87 µM	2.02	5.2	1.38	2.9	1.92	4.05	1.49	3.9	1.41	2.78	1.55	3.06 µM	1.67
C=CCOc1ccc(N)c([N+](=O)[O-])c1	–	> 100 µM	> 100 µM	–	> 100 µM	–	> 100 µM	–	> 100	–	> 100	–	> 100	–	> 100	–	> 100	–	> 100 µM	–
COc1cc(NS(C)(=O)=O)ccc1Cc1c2ccccc2nc2ccccc12	0.0571	0.649 µM	1.65 µM	0.136	1.21 µM	0.137	1.48 µM	0.146	1.37	0.307	2.4	0.0812	2.4	–	0.0265	0.135	1.93	0.101	1.67 µM	0.192
CC1=C2[C@@H](CC1)[C@]1(C)O[C@@](C(C)C)(C[C@H]1OC(=O)CO)[C@H]2OC(=O)CCCc1ccccc1	8.82	20.9 µM	19.8 µM	5.61	20.9 µM	11.3	27.6 µM	4.58	26.8	5.88	44.7	6.52	21.8	3.66	15.2	3.54	13.9	3.42	13.2 µM	6.52
CCCS(=O)(=O)Nc1cccc(Nc2ncnc3cc(NC(=O)CCl)ccc23)c1Cl	3.09	6.31 µM	4.28 µM	0.516	1.16 µM	1.26	5.25 µM	3.71	14.1	1.04	17.1	1.2	5.51	1.04	7.13	0.968	4.03	0.871	3.68 µM	0.674
COc1cc2c(/C=C3/C(=O)Nc4ccc(O)cc43)c(Cl)n(Cc3cc(OC)c(OC)c(OC)c3)c2cc1C	3.42	> 30.3 µM	3.91 µM	2.49	> 28.3 µM	3.54	> 100 µM	3.05	> 26.5	2.17	> 31.6	2.61	> 100	2.34	> 21.9	2.18	> 33.2	1.58	8.56 µM	0.494
